In PubChem BioAssay (NCI):
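How tested: cells in 96-well plates exposed to compound for 48 hours at five concentrations. TGI is the concentration that stops growth completely.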

Tests used:
Assay in all cases: NCI-60 cell line screen, 48 h
HCC-2998 colon = test system: HCC-2998 colon
M14 melanoma = test system: M14 melanoma
HT29 colon = test system: HT29 colon
HCT-15 colon = test system: HCT-15 colon
OVCAR-5 ovarian = test system: OVCAR-5 ovarian
SW-620 colon = test system: SW-620 colon
MOLT-4 leukemia = test system: MOLT-4 leukemia
LOX IMVI melanoma = test system: LOX IMVI melanoma
SF-539 CNS = test system: SF-539 CNS
SK-MEL-5 melanoma = test system: SK-MEL-5 melanoma

Structure (SMILES)	TGI (HCC-2998 colon)	TGI (M14 melanoma)	TGI (HT29 colon)	TGI (HCT-15 colon)	TGI (OVCAR-5 ovarian)	TGI (SW-620 colon)	TGI (MOLT-4 leukemia)	TGI (LOX IMVI melanoma)	TGI (SF-539 CNS)	TGI (SK-MEL-5 melanoma)
Nc1ccc(S(=O)(=O)c2ccc(N=[N+]([O-])c3ccc(S(=O)(=O)c4ccc(N)cc4)cc3)cc2)cc1	> 100 µM	> 100 µM	> 100 µM	> 100 µM	> 100 µM	> 100 µM	> 100 µM	> 100 µM	58.1 µM	> 100 µM
CC(=O)C1C(=O)C(=O)N(c2ccc([N+](=O)[O-])cc2Cl)C1=O (stereo not drawn)	> 100 µM	> 100 µM	> 100 µM	> 100 µM	> 100 µM	> 100 µM	> 100 µM	> 100 µM	> 100 µM	> 100 µM
OC(C1CCCC1=N/N=C1/CCCC1C(O)(C(F)(F)Cl)C(F)(F)Cl)(C(F)(F)Cl)C(F)(F)Cl (stereo not drawn)	> 10 µM	> 10 µM	> 10 µM	> 10 µM	> 10 µM	> 10 µM	> 10 µM	> 10 µM	> 10 µM	> 10 µM
CC1(C)OCC(C2OC(=O)C(OCc3ccccc3)=C2OCc2ccccc2)O1 (stereo not drawn)	> 100 µM	> 100 µM	> 100 µM	> 100 µM	> 100 µM	> 100 µM	73.1 µM	> 100 µM	> 100 µM	32.3 µM
CC1=NN(c2cccc(Cl)c2)C2(C1)SCC(=O)N2c1nc2ccccc2s1 (stereo not drawn)	38.5 µM	86.5 µM	63.8 µM	> 100 µM	> 100 µM	> 100 µM	38.9 µM	41.6 µM	45.8 µM	39.4 µM
C=CC[C@@]1(C#N)C[C@H](C[C@]2(C#N)C[C@H](CCl)OC(C)(C)O2)OC(C)(C)O1	> 100 µM	> 100 µM	> 100 µM	> 100 µM	> 100 µM	> 100 µM	> 100 µM	> 100 µM	> 100 µM	> 100 µM
Nc1nc(SCc2ccccc2[N+](=O)[O-])c2[nH]cnc2n1	97.4 µM	> 100 µM	> 100 µM	> 100 µM	> 100 µM	> 100 µM	> 100 µM	> 100 µM	> 100 µM	49.1 µM
Cc1ccc(N2C(=O)C(O)=C(C(=O)C(C)(C)C)C2c2ccc([N+](=O)[O-])cc2)cc1 (stereo not drawn)	45.4 µM	46.2 µM	37.3 µM	47.4 µM	> 100 µM	–	31.5 µM	36.9 µM	63 µM	30 µM
O=C(O)C1C2CCC(C2)C1c1ccccc1 (stereo not drawn)	> 100 µM	> 100 µM	> 100 µM	> 100 µM	> 100 µM	> 100 µM	> 100 µM	> 100 µM	> 100 µM	> 100 µM
CCOC(=S)SC/C(=N\OC(C)(C)OC)c1ccccc1	61.8 µM	> 100 µM	58.3 µM	> 100 µM	> 100 µM	> 100 µM	65.2 µM	31.2 µM	> 100 µM	> 100 µM
COC(=O)C1(Cc2ccc3c(c2)CCC3)Cc2cc3c(cc2C1=O)CCC3 (stereo not drawn)	38.1 µM	> 46.4 µM	> 46.4 µM	> 46.4 µM	> 46.4 µM	> 46.4 µM	38.7 µM	> 46.4 µM	> 46.4 µM	32.3 µM
CN(C)C(=O)CO/N=C1/C(c2c(O)[nH]c3ccccc23)=Nc2ccccc21	> 100 µM	> 100 µM	> 100 µM	> 100 µM	> 100 µM	> 100 µM	> 100 µM	> 100 µM	> 100 µM	> 100 µM
CN1CCN(CCCCNc2cc3c4ccccc4c(NCCCCN4CCN(C)CC4)cc3c3ccccc23)CC1	3.29 µM	2.16 µM	4.19 µM	2.88 µM	12.5 µM	–	1.88 µM	2.42 µM	3.28 µM	2.85 µM
FC(F)(F)c1nc2cc(SSc3cc4nc(C(F)(F)F)[nH]c4cc3Cl)c(Cl)cc2[nH]1	> 100 µM	> 100 µM	> 100 µM	> 100 µM	> 100 µM	> 100 µM	> 100 µM	> 100 µM	> 100 µM	> 100 µM
O=C(O)[C@H]1NC[C@@H]2ON=C(Br)[C@@H]21	> 100 µM	> 100 µM	> 100 µM	> 100 µM	> 100 µM	> 100 µM	> 100 µM	> 100 µM	> 100 µM	> 100 µM
COc1cc(C2c3cc4c(cc3OC(N3CCOCC3)C2C)OCO4)cc(OC)c1OC (stereo not drawn)	4.35 µM	44.1 µM	7.51 µM	> 40.3 µM	> 65.7 µM	> 100 µM	> 38.2 µM	> 53.3 µM	1.69 µM	6.78 µM
Cn1c2cc(Cl)ccc2c2ccc3c(c21)C(=O)C=CC3=O	> 100 µM	> 64 µM	> 64.6 µM	> 57.5 µM	> 100 µM	17.9 µM	10.3 µM	> 100 µM	> 78.8 µM	> 100 µM
C/C=C/COc1cc(NC(=S)c2ccoc2C)ccc1OC	> 100 µM	> 100 µM	> 100 µM	> 100 µM	> 100 µM	> 100 µM	> 100 µM	> 100 µM	> 100 µM	> 100 µM
CNc1nc(=O)c(C#N)c(-c2ccc(C)cc2)s1	> 100 µM	> 100 µM	> 100 µM	> 100 µM	> 100 µM	> 100 µM	> 100 µM	> 100 µM	> 100 µM	> 100 µM
CCCCCCCCCCCCCCCCCCNC(=S)/N=C/c1c(O)cc(C)oc1=O	39 µM	41.9 µM	76.8 µM	62 µM	37.3 µM	96 µM	> 100 µM	> 100 µM	62.3 µM	> 100 µM
